Laboratory results from ChEMBL document CHEMBL3045333, “Asymmetric aza-Michael additions of 4-nitrophthalimide to nitroalkenes and preliminary study of the products for herbicidal activities” (2013).

Assays:
Type in all cases: functional
Echinochloa crus-galli [1] = assay: Herbicidal activity against Echinochloa crus-galli (barnyard grass) assessed as reduction of seedling height growth in light conditions at 100 ug/ml treated twice; settings: for inhibition of growth at 100 µg/mL: Echinochloa crus-galli, read-out: GI
Echinochloa crus-galli [2] = assay: Herbicidal activity against Echinochloa crus-galli (barnyard grass) assessed as reduction of radical growth in dark conditions at 10 ug/ml treated twice; settings: for inhibition of growth at 10 µg/mL: Echinochloa crus-galli, read-out: GI
Echinochloa crus-galli [3] = assay: Herbicidal activity against Echinochloa crus-galli (barnyard grass) assessed as reduction of radical growth in dark conditions at 100 ug/ml treated twice; settings: for inhibition of growth at 100 µg/mL: Echinochloa crus-galli, read-out: GI
Echinochloa crus-galli [4] = assay: Herbicidal activity against Echinochloa crus-galli (barnyard grass) assessed as reduction of seedling height growth in light conditions at 10 ug/ml treated twice; settings: read-out: GI

Structure (SMILES) | inhibition of growth at 100 µg/mL (Echinochloa crus-galli [1]) [%] | inhibition of growth at 10 µg/mL (Echinochloa crus-galli [2]) [%] | inhibition of growth at 100 µg/mL (Echinochloa crus-galli [3]) [%] | inhibition of growth at 10 µg/mL (Echinochloa crus-galli [4]) [%] | growth inhibition (GI) (Echinochloa crus-galli [1]) [%] | growth inhibition (GI) (Echinochloa crus-galli [2]) [%] | growth inhibition (GI) (Echinochloa crus-galli [3]) [%]
O=C1c2ccc([N+](=O)[O-])cc2C(=O)C1C(C[N+](=O)[O-])c1ccccc1Cl (centres undefined) | 93.2 | 0 | 59.6 | 0 | – | – | –
O=C1c2ccc([N+](=O)[O-])cc2C(=O)C1C(C[N+](=O)[O-])c1ccc(Cl)cc1Cl (centres undefined) | 0 | 5 | 10 | 0 | – | – | –
O=C1c2ccc([N+](=O)[O-])cc2C(=O)C1C(C[N+](=O)[O-])c1ccc(F)cc1 (racemic) | – | 0 | 0 | – | 64.1 | – | –
O=C1c2ccc([N+](=O)[O-])cc2C(=O)C1C(C[N+](=O)[O-])c1ccc(Cl)cc1 (stereo in doubt; 4be) | – | – | – | 0 | 9.7 | 0 | 5
O=C1c2ccc([N+](=O)[O-])cc2C(=O)C1C(C[N+](=O)[O-])c1ccc(F)cc1 (stereo in doubt; 4bd) | – | – | – | 0 | 22 | – | –
O=C1c2ccc([N+](=O)[O-])cc2C(=O)C1C(C[N+](=O)[O-])c1cccc(Cl)c1 (centres undefined) | 0 | 0 | 0 | 0 | – | – | –
O=C1c2ccc([N+](=O)[O-])cc2C(=O)C1C(C[N+](=O)[O-])c1ccc(Cl)cc1 (racemic) | – | – | 10 | – | 55.5 | 5 | –
